Data as given in patent US11904052B2, “Methods for ameliorating infusion reactions” (ARBUTUS BIOPHARMA CORPORATION, priority 2016, dated 2024).
Entries after “also recorded” stand apart in the source; their conditions may differ.

Tests used:
[1] = tested on: thromboxane B2; test: Plasma thromboxane B2 after LNP2 infusion in the conscious minipig; type: in vivo, Gottingen minipigs; conditions: iv bolus 10 minutes prior to LNP2 infusion; ketorolac 1 mg/kg, dexamethasone 0.3 mg/kg
Description: (§1) Four (4) treatment naïve female Gottingen minipigs (Marshall Farms, N.Y.) were surgically implanted with a D70-PCT PhysioTel implantable radiotelemetry transmitter (Data Sciences International, St. Paul, Minn.) to allow for the measurement of physical activity, body temperature, ECG, heart rate, and arterial blood pressure. The pigs were allowed to recover from surgery for at least 7 days prior to use in the study.
(§2) Following surgical recovery, the same four pigs (15-20 kg) received a 60-minute intravenous infusion of vehicle (0.9% saline), LNP2, LNP2+ketorolac, or LNP2+dexamethasone as outlined in the Table 1. Each treatment cohort was separated by a 7-day washout period.
(§3) Just prior to each infusion and at approximately 1, 3, 6 and 24 hours after the start of each infusion, a mixed venous blood sample was taken, processed to plasma, stored frozen, and used for subsequent analysis of thromboxane B2 (11-dehydrothromboxane B2). Heart rate and arterial blood pressure was continuously recorded from 30 minutes prior to each infusion to 24 hours after the start of each infusion.

[2] = tested on: conscious minipig; test: Mean arterial blood pressure by radiotelemetry after LNP2 infusion in the conscious minipig; type: in vivo, Gottingen minipigs; conditions: iv bolus 10 minutes prior to LNP2 infusion; ketorolac 1 mg/kg, dexamethasone 0.3 mg/kg
Description: as §1, §2, §3

O=C(c1ccccc1)c1ccc2n1CCC2C(=O)O (stereo not drawn) [ketorolac]
effect on the LNP2-induced increase in thromboxane B2 [1]: mitigated completely
effect on the acute infusion reaction to LNP2 (increase in blood pressure) [2]: completely prevented
effect on the delayed hypotension after LNP2 infusion [2]: prevented; also recorded: effectively mitigated
